Data as given in PubChem BioAssay (NCI).
Several values for one entry are separate records, joined by “and”; a condition that tells them apart may be missing. Identical values can stand only once.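 The compound was tested at five concentrations on cells cultured in 96-well plates, with a 48-hour exposure period. GI50 marks 50% less growth. The concentration for full growth arrest is given as TGI.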

Tests used:
Assay in all cases: NCI tumour cell line growth inhibition, 48 h
[1] = system: MOLT-4 leukemia
[2] = system: CCRF-CEM leukemia
[3] = system: MALME-3M melanoma
[4] = system: COLO 205 colon
[5] = system: SF-539 CNS
[6] = system: NCI-H226 lung
[7] = system: U251 CNS
[8] = system: OVCAR-4 ovarian
[9] = system: K-562 leukemia
[10] = system: SR leukemia

Row | Structure (SMILES) | GI50 [1] | TGI [1] | GI50 [2] | TGI [2] | GI50 [3] | TGI [3] | GI50 [4] | TGI [4] | GI50 [5] | TGI [5] | GI50 [6] | TGI [6] | GI50 [7] | TGI [7] | GI50 [8] | TGI [8] | GI50 [9] | TGI [9] | GI50 [10] | TGI [10]
1 | Cc1cc(C)nc(NC(N)=NCCc2ccccc2)n1 | 6.01 µM | > 100 µM | 5.19 µM | > 100 µM | 2.23 µM | 10.5 µM | 2.68 µM | 12.5 µM | 2.56 µM | 26.2 µM | 5.06 µM | > 100 µM | 3.15 µM | > 100 µM | 5.35 µM | > 100 µM | 3.56 µM | > 100 µM | 2.77 µM | 14.5 µM
2 | CC1CC2C3CC(F)C4=CC(=O)C=CC4(C)C3(F)C(O)CC2(C)C1(O)C(=O)COC(=O)C(C)(C)C (configuration not stated) | – | > 100 µM | – | > 100 µM | – | > 100 µM | – | > 100 µM | – | > 100 µM | – | > 100 µM | – | > 100 µM | – | > 100 µM | – | > 100 µM | – | > 100 µM
3 | CC(C)[C@](O)(c1ccc2cc(OC(F)F)c(OC(F)F)cc2c1)c1cn[nH]n1 | 30.1 µM and 17.1 µM | 82.7 µM and 62 µM | 23.8 µM and 24.2 µM | 59 µM and 85.1 µM | 18.4 µM and 21 µM | 42.6 µM and 44.7 µM | 17 µM and 21.5 µM | 33.9 µM and 43.2 µM | 16.5 µM and 16.2 µM | 32.4 µM and 32.3 µM | 23.1 µM and 18.9 µM | 55.4 µM and 46.1 µM | 16.5 µM and 16.1 µM | 33.5 µM and 32 µM | 21.9 µM and 15 µM | > 100 µM and 54.4 µM | 20.1 µM and 24.8 µM | 66.3 µM and 80.7 µM | 24.7 µM and 12.1 µM | 56.7 µM and 44.9 µM
4 | COc1ccc(-c2[nH]ncc2-c2cc3c(c(OC)c2)OCC(=O)N3)cc1 | 0.528 µM | > 34.6 µM | 0.398 µM | > 100 µM | 2.75 µM | 99.1 µM | 0.465 µM | 12.8 µM | 0.372 µM | 2.16 µM | 1.66 µM | 41.5 µM | 0.481 µM | > 100 µM | 2.91 µM | 77.9 µM | 0.309 µM | > 100 µM | 0.285 µM | > 47.7 µM
5 | Cc1ccccc1NC(=S)Nc1ccccn1 | > 100 µM | > 100 µM | > 100 µM | > 100 µM | > 100 µM | > 100 µM | > 100 µM | > 100 µM | > 100 µM | > 100 µM | > 100 µM | > 100 µM | > 100 µM | > 100 µM | 72.5 µM | > 100 µM | > 100 µM | > 100 µM | > 100 µM | > 100 µM
6 | COC1=CC(c2ccc[nH]2)=N/C1=C\c1[nH]c(C)c(C(=O)OCc2ccccc2)c1C | 0.0513 µM | 4.61 µM | 0.0404 µM | > 28.3 µM | 0.495 µM | 2.1 µM | 0.165 µM | 1.48 µM | 0.111 µM | 1.54 µM | 0.132 µM | 1.52 µM | 0.0616 µM | 1.26 µM | 0.0756 µM | 5.71 µM | 0.0855 µM | 1.46 µM | 0.0405 µM | 0.885 µM
7 | C[n+]1c(/C=C\C=C\N2CCCCC2)sc2ccccc21 | 0.401 µM | 9.42 µM | 0.299 µM | > 40.5 µM | 0.311 µM | 2.18 µM | 0.204 µM | 0.454 µM | 1.03 µM | 15 µM | 1.05 µM | 22.4 µM | 0.291 µM | 15 µM | 0.479 µM | > 42.4 µM | 0.172 µM | 12.7 µM | 0.105 µM | 3.08 µM
8 | CC1=NN(C(=O)c2ccccc2O)C(=O)/C1=C/c1ccc([N+](=O)[O-])cc1 | 0.35 µM | > 100 µM | 0.259 µM | – | 0.895 µM | > 100 µM | 7.43 µM | > 88 µM | 0.476 µM | 2.57 µM and 2.52 µM | 0.23 µM | 7.93 µM and 25.1 µM | 0.516 µM | > 100 µM | 0.783 µM | > 100 µM | 0.216 µM | – | 5.04 µM | –
9 | COc1cccc(C2CC(c3cc(OC)c(OC)c(OC)c3)=NN2)c1 (configuration not stated) | 6.17 µM | 41.4 µM | 2.91 µM | 21.7 µM | 23.4 µM | > 100 µM | 18.7 µM | 48.8 µM | 5.33 µM | 21.1 µM | 28.9 µM | > 100 µM | 10 µM | 22.8 µM | 23.5 µM | > 100 µM | 4.19 µM | > 100 µM | 3.09 µM | 14.1 µM
